Assay results reported in paper PMC8620390, “New Multi-Targeted Antiproliferative Agents: Design and Synthesis of IC261-Based Oxindoles as Potential Tubulin, CK1 and EGFR Inhibitors” (Pharmaceuticals, 2021).

Columns and labels:
COLO-205 [1] = experiment: Two-dose antiproliferative screening, SRB assay, COLO-205; assay type: cell-based, human; details: triplicates; for Growth Inhibition (%) COLO-205 1 μM Average: 72 h; for inhibition at 1 µM / inhibition at 10 µM: Homo sapiens, COLO 205, 72 h; for inhibition at 1 µM: read-out: Growth Inhibition (%) COLO-205 1 μM Average; for inhibition at 10 µM: read-out: Growth Inhibition (%) COLO-205 10 μM Average
Protocol: MCF-7(breast adenocarcinoma), PC-3 (prostate cancer) and COLO-205 (colorectal cancer) were obtained from Nawah Scientific inc., (Mokatam, Cairo, Egypt). Cells were maintained in Dulbecco’s Modified Eagle’s media (DMEM media) supplemented with […] of streptomycin, 100 units/mL of penicillin and 10% of heat-inactivated fetal bovine serum in humidified, 5% (v/v) CO2 atmosphere at 37 °C.
Cell viability was assessed by the sulforhodamine B (SRB) assay. Aliquots of cell suspension (5 × 10^3 cells, 100 μL) were transferred into 96 well plates and incubated in complete media for 24 h. Cells were treated with another aliquot media (100 μL) containing compounds 3a–f, 4a–f, 6a–f, 7a–f, 9a–b at concentrations of 1 and 10 μM). After 72 h of drug exposure, cells were fixed by replacing media with trichloroacetic acid (TCA, 10%, 150 μL) and incubated at 4 °C for 1 h. The TCA solution was removed, and the cells were washed five times with distilled water. Aliquots of SRB solution (0.4%w/v, 70 μL) were added and incubated in a dark place at room temperature for 10 min. Plates were washed three times with 1% acetic acid and allowed to air dry overnight. Then, a solution of TRIS base and TRIS HCl (TRIS buffer, 10 mM, 150 μL) was added to dissolve protein bound SRB stain. The absorbance was measured at 540 nm using BMGLABTECH®–FLUOstar omega micro-plate reader (Ortenberg, Germany).

A549 cell line = experiment: MTT assay for A549 cell line; assay type: cell-based
Protocol: MTT assay for A549 cell line. Cell Line cells were obtained from American Type Culture Collection. Cells were cultured using DMEM (Invitrogen/Life Technologies, Carlsbad, CA, USA) supplemented with 10% FBS (Hyclone, Logan, UT, USA), 10 μg/mL of insulin (Sigma, St. Louis, MI, USA), and 1% penicillin-streptomycin. All the other chemicals and reagents were from Sigma (St. Louis, MI, USA) or Invitrogen (Carlsbad, CA, USA). Cells were plated (cells density 1.2–1.8 × 10,000 cells/well) in a volume of 100 µL complete growth medium + 100 μL of the tested compound per well in a 96-well plate for 24 h before the application of MTT assay protocol as reported, Supplementary Materials.
Cell Line cells were obtained from American Type Culture Collection , cells were cultured using DMEM (Invitrogen/Life Technologies) supplemented with 10% FBS (Hyclone,), 10 ug/ml of insulin (Sigma), and 1% penicillin-streptomycin. All of the other chemicals and reagents were from Sigma, or Invitrogen.
Plate cells (cells density 1.2 – 1.8 × 10,000 cells/well) in a volume of 100µl complete growth medium + 100 ul of the tested compound per well in a 96-well plate for 24 hours before the MTT assay .
1. Remove culture medium to a centrifuge tube.
2. Briefly rinse the cell layer with 0.25% (w/v) Trypsin 0.53 mM EDTA solution to remove all traces of serum which contains Trypsin inhibitor.
3. Add 2.0 to 3.0 ml of Trypsin EDTA solution to flask and observe cells under an inverted microscope until cell layer is dispersed (usually within 5 to 15 minutes). […]
waiting for the cells to detach. Cells that are difficult to detach may be placed at 37°C […]
4. Add 6.0 to 8.0 mL of complete growth medium and aspirate cells by gently
5. […]
6. Spectrophotometrically measure absorbance at a wavelength of 570 nm. Measure the background absorbance of multiwell plates at 690 nm and subtract from the […] measurement. Tests performed in multiwell plates can be read using the appropriate type of plate reader or the contents of individual wells may be transferred to appropriate size cuvets for spectrophotometric measurement.

COLO-205 [2] = experiment: Annexin V-FITC/PI apoptosis assay; assay type: cell-based, human
Protocol: COLO-205 Cells were placed in a 6-well plate at 1 × 10^5 concentration of cells/well then incubated for 24 h. COLO-205 Cells were treated with compound 4b (2.34 μM) for 24 h. The cells were then harvested, washed with PBS and stained with Annexin V-FITC and PI in binding buffer ([…] at pH 7.4) for 15 min at room temperature in the dark then analyzed by the flow cytometer.

[3] = COLO-205, 4b 2.34 μM, 24 h, annexin V-FITC

SMILES | Growth Inhibition (%) COLO-205 1 μM Average (COLO-205 [1]) | inhibition at 1 µM (COLO-205 [1]) | inhibition at 10 µM (COLO-205 [1]) | IC50 (A549 cell line; Homo sapiens, A549) | IC50 (A549 cell line; listed as 4a (IC261)) | Apoptosis Early (COLO-205 [2]; [3]) | Apoptosis Late (COLO-205 [2]; [3]) | Apoptosis Total (COLO-205 [2]; [3]) | Necrosis (COLO-205 [2]; COLO-205, 4b 2.34 μM, 24 h, annexin V-FITC/PI) | overall effect (cytotoxic vs cytostatic) (COLO-205 [2]; COLO-205, annexin V/PI) | early and late apoptosis, times compared to the control (COLO-205 [2]; COLO-205, vs DMSO control) | necrosis, times compared to the control (COLO-205 [2]; COLO-205, vs DMSO control)
COc1cc(OC)c(/C=C2/C(=O)Nc3ccccc32)c(OC)c1 [Compound 4a, (E)-3-(2,4,6-trimethoxybenzylidene)indolin-2-one, reference compound] | 63.60% | 64% | 77.5% | 28 µM | 28.4 µM |  |  |  |  |  |  | 
COc1cc(OC)c(/C=C2/C(=O)Nc3cc(Cl)ccc32)c(OC)c1 [Compound 4b, (E)-6-chloro-3-(2,4,6-trimethoxybenzylidene)indolin-2-one] | 73.32% | 74% | 82.5% | 9.5 µM |  | 2.61% | 21.31% | 41.28% | 17.36% | cytotoxic, rather than cytostatic | 27.81 times | 11.05 times
